In US20030185792A1, “Morphogen analogs of bone morphogenic proteins” (Curis, Inc., priority 1996, published 2003):
Entries after “also recorded” stand apart in the source; their conditions may differ. Bridge positions count the residues as written; N and C are the ends. Ends that are not written are not given here.

How the values were obtained:
[1] = system: OP-1 receptor-enriched plasma membrane fraction of ROS cells; test: Radioligand receptor assay: displacement of 125I-labeled OP-1 from ROS cell plasma membranes; assay type: binding, rat; conditions: for effect on binding of 125I-labeled OP-1 to the receptor: Example 3; for ability to displace 125I-labeled soluble OP-1 from ROS cell membranes: Example 2, FIGS. 10A and 10B
Procedure: In a second series of experiments, the ability of unlabeled soluble OP-1 and unlabeled peptides F1-2, F2-2, F2-3, H-n2 and H-c2 to displace ^125I labeled soluble OP-1 from ROS cell membranes was measured. The activities of peptides F2-2 and F2-3 relative to soluble OP-1 are shown in FIG. 10A, and the activities of peptides Fi-2, H-n2 and H-c2 relative to soluble OP-1 are shown in FIG. 10B. OP-1 receptor-enriched plasma membranes of ROS cells were incubated for 20 hrs at 4° C. with ^125I-labeled soluble OP-1 and unlabeled peptide. Receptor bound material was separated from unbound material by centrifugation at 39,500×g. The resulting pellet was harvested and washed with 50 mM HEPES buffer, pH 7.4 containing 5 mM MgCl2 and 1 mM CaCl2 Radioactivity remaining in the pellet was determined by means of a gamma counter.
(§1) Assay of peptides: The receptor-binding activities of OP-1 synthetic peptides were determined by a radio-ligand receptor assay using ^125I-labeled OP-1 as ligand, and an OP-1 receptor-enriched plasma membrane fraction of ROS cells. The assay is based on competition between radiolabeled OP-1 and unlabeled OP-1 or peptide for binding to membrane-bound receptor. A well characterized ROS cell based in vitro bio-assay was used to examine the effects of OP-1 peptides on basal as well as OP-1 induced cellular alkaline phosphatase activity.
i. Radio-receptor Assay: The receptor-binding activities of various OP-1 synthetic peptides can be determined by an equilibrium displacement binding isotherm assay using ^125I-labeled OP-1 as ligand and OP-1 receptor-enriched plasma membrane fraction of ROS cells. Highly purified OP-1 can be radioiodinated to a specific activity of 70-78 μCi/ug by a modified procedure of lactoperoxidase method. The percent bindability of radioiodinated OP-1 to excess receptor is 30-37%. Plasma membranes enriched with OP-1 receptors from ROS cells can be isolated as is known in the art. […] In a typical assay, fixed amounts of ^125I-labeled sol. OP-1 (˜80,000 cpm) are incubated with fixed amount of receptor-enriched plasma membrane fraction in the presence (5 μg, for non-specific binding) or absence of excess unlabeled OP-1 (for total binding). Displacement curves are generated with increasing concentrations of OP-1 peptide (0.032-50 μM) or OP-1 standard preparation (5-2000 ng). The assay incubations are carried out in a reaction volume of 300 μl with shaking for 22 hrs. at 4° C. Separation of bound and free ^125I-labeled OP-1 is by centrifugation (39,500×g, 30 minutes). The supernatants are aspirated and pellets are washed before counting in a gamma counter (Packard Instr., Downers Grove, Ill.). The concentration of OP-1 peptide required to give 50% inhibition of total specific binding of ^125I-labeled OP-1 (ED50) is calculated from competitive data.

ROS cells = test: ROS cell based alkaline phosphatase bioassay; parameters: species or system rat; conditions: for effect on OP-1 induced cell responsiveness (agonist/antagonist behaviour): peptide together with OP-1; for IC50: peptide together with OP-1 (1.33 nM), read-out: peptide concentration giving 50% inhibition of cellular responsiveness to OP-1; for effect on basal cell responsiveness (alkaline phosphatase activity): no OP-1
Procedure: In a first series of experiments, increasing concentrations of peptides F2-2 (FIG. 9A), F2-3 (FIG. 9B), Hn-2 (FIG. 9C) and Hc-2 (FIG. 9D) were added to ROS cells either alone (open bars) or in combination with 40 ng/ml soluble OP-1 (filled bars) and their effect on alkaline phosphatase activity measured. Soluble OP-1 is the form of OP-1 in which the pro-domain is still attached to the mature portion of OP-1 (see WO 94/03600). A basal alkaline phosphatase activity is shown by the line and represents the alkaline phosphatase activity of cells incubated in the absence of both soluble OP-1 and peptide.
as §1
i. ROS Cell Based Alkaline Phosphatase Assay: OP-1 synthetic peptides that bind OP-1 receptors are further analyzed by in vitro bioassay. This allows defining the role of OP-1 peptides at the receptor-binding site. Some of the OP-1 peptides that effectively interact with receptors could inhibit OP-1 induced target cell responsiveness, thereby acting as functional antagonists. Alternatively, they may mimic OP-1 functions inducing alkaline phosphatase activity in ROS cells. Creative BioMolecules has developed and fully validated ROS cell in vitro assay for OP-1. An assay procedure as described earlier is essentially followed to determine the biological activities of OP-1 peptides. In a typical experiment, rat Osteosarcoma (17/2.8) cells are plated in 96 well plates (3.0×10^4 cells/well) and incubated overnight at 37° C. in 5-6% CO2 incubator. Next day, the plates are examined to make sure that cells are healthy & confluent. Cells are treated with increasing concentrations of OP-1 standard (1-10,000 ng/ml) or OP-1 synthetic peptides (0.02-200 μM) alone or with OP-1 standard prepared in medium containing 1% FBS and incubated for 2 days at 37° C. in 5-6% CO2 incubator. The cellular content of alkaline phosphatase activity is determined by the method of Reddi and Huggins. Enzyme estimations are routinely carried out in 96 well plates. Following removal of culture medium, cells are washed with pre-warmed PBS (150 μl) and further incubated in 100 ul of pre-warmed 1% Triton X-100 for 30 minutes at 37 C. Plates are centrifuged for 10 minutes at full speed, and recovered samples (each 15 μl) are assayed for enzyme activity by adding 90 ul p-nitrophenyl phosphate (Sigma) as a substrate in 0.05 M glycine-NaOH buffer, pH 9.3 and incubating for 20 minutes at 37° C. The reaction is stopped by adding 75 μl of 0.2 N NaOH/well and absorbance at 405/490 nm is measured on a Dynatech MR 700 plate reader. Results are expressed as concentration of peptide inhibitor (with antagonist activity) required to give 50% inhibition of maximum response to OP-1 standard. On the other hand, the activities of peptides that stimulate cell responsiveness (with agonist activity) are expressed relative to OP-1 standard. FIG. 23 illustrates the dose-related effects of OP-1 preparations on stimulation of alkaline phosphatase activity as determined in ROS cell based in vitro assay.

With “F1-1: SEQ ID No. 5; cyclized peptide covering the complete finger 1 region of OP-1 (CELYVSFRDLGWQDWIIAPEGYAAYC; cyclized; listed as Homo sapiens)” the “effect on binding of 125I-labeled OP-1 to the receptor” value (“effect on binding” below) [1] was “interfered”, the “peptide concentrations effective to inhibit basal cellular responsiveness” value (ROS cells; Example 3, peptide alone) was 52 to 260 µM and the “effect on OP-1 induced cell responsiveness (agonist/antagonist behaviour)” value (shortened to “effect … (agonist/antagonist behaviour)”) (ROS cells; Example 3) was “antagonists”. It also gave an IC50 (ROS cells; Example 3) of 20 µM.

In the case of “F1-2: SEQ ID No. 6; 15-residue finger 1 loop region peptide cyclized at the ends (CFRDLGWQDWIIAPC; cyclized; listed as Homo sapiens)”, the “ability to displace 125I-labeled soluble OP-1 from ROS cell membranes” value (shortened to “ability”) [1] is reported as “little or no ability to displace”, the “effect on binding” value [1] is reported as “relatively weak activity” and the “peptide concentration required to inhibit binding of 125I-labeled OP-1 to the receptor” value ([1]; Example 3, FIG. 14) is reported as 179 µM. The “effect on binding” value ([1]; listed as Fi-2) was “interfered”, the “effect on basal cell responsiveness (alkaline phosphatase activity)” value (from here on “effect on basal cell responsiveness”) (ROS cells; Example 3, peptide alone) was “weakly inhibiting” and the “effect … (agonist/antagonist behaviour)” value (ROS cells; Example 3) was “relatively weak antagonist”. The IC50 (ROS cells; Example 3) was 10 µM and the “effect … (agonist/antagonist behaviour)” value (ROS cells; Example 3, listed as Fi-2) was “antagonists”.

For “F2-1: SEQ ID No. 16; covers the entire finger 2 region of OP-1, cyclized close to the knot region (CLNAISVLYFDDSSNVILKKYRNMVVRC; disulfide 1-28 (inferred); listed as Homo sapiens)”, the “effect on basal cell responsiveness” value (ROS cells; Example 3, peptide alone) was “effectively inhibited”, the “effect … (agonist/antagonist behaviour)” value (ROS cells; Example 3) was “effectively inhibited” and the IC50 (ROS cells; Example 3) was 8 µM.

“F2-2: SEQ ID No. 17; 9 residues at the tip of finger 2 including 2 Asp residues, ends cyclized (CYFDDSSNVIC; cyclized; listed as Homo sapiens)” was tested, and the “ability” value [1] was “cannot completely displace”, the “effect on binding” value [1] was “effectively competed” and the “behaviour in the alkaline phosphatase assay (agonist/antagonist)” value (ROS cells; Example 2, alone or with 40 ng/ml soluble OP-1) was “weak OP-1 agonists”. For the same substance, the “effect on responsiveness to OP-1” value (ROS cells; Example 3, at higher peptide concentrations (above 0.6-60 μM)) was “inhibited the responsiveness to OP-1”, the “potentiation of OP-1 induced cell responsiveness” value (ROS cells; Example 3, peptide 0.6-60 μM, FIG. 16) was 20% and the “effect … (agonist/antagonist behaviour)” value (ROS cells; Example 3) was “weak agonist; also recorded: potentiating the cell responsiveness to OP-1”. The “peptide concentrations at which OP-1 induced responsiveness is potentiated” value (ROS cells; Example 3, with OP-1) was 0.6 to 60 µM, the “increase of alkaline phosphatase activity relative to soluble OP-1 alone” value (ROS cells; peptide about 60 μM with 40 ng/ml soluble OP-1, FIG. 9A) was “about 20%” and the “effect on basal alkaline phosphatase level” value (ROS cells; peptide alone, about 60 μM, Example 2, FIG. 9A) was “double”.

For “F2-2c: SEQ ID No. 18; control cyclized peptide, 9 residues of F2-2 in reverse order (CIVNSSDDFYC; disulfide 1-11 (inferred); listed as Homo sapiens) [reference compound]”, the “effect on binding” value [1] was “inactive”, the “effect on basal cell responsiveness” value (ROS cells; Example 3, peptide alone) was “no effect” and the “effect … (agonist/antagonist behaviour)” value (ROS cells; Example 3) was “no effect”.

For “H-1: SEQ ID No. 11; covers the whole Heel region, cyclized near the knot region (CAFPLNSYMNATNHAIVQTLVHFINPETVPKC; disulfide 1-32 (inferred); listed as Homo sapiens)”, the “effect on binding” value [1] was “interfered”, the “effect on basal cell responsiveness” value (ROS cells; Example 3, peptide alone) was “effective only at very high concentrations” and the “effect … (agonist/antagonist behaviour)” value (ROS cells; Example 3) was “weak antagonist; also recorded: antagonists”. For the same substance, the “peptide concentrations required to inhibit the OP-1 induced cell response” value (ROS cells; Example 3, with OP-1) was 44 to 220 µM.

With “H-C2: SEQ ID No. 13; 7 residues (plus Cys) in the loop on the C-terminal end of the Heel helix (CCFINPETVCC; listed as Homo sapiens)” the “ability” value [1] was “little or no ability to displace”, the “effect on binding” value [1] was “interfered” and the “effect on binding” value ([1]; peptide at 8 μM, FIG. 14) was “potentiated”. For the same substance, the “effect on basal cell responsiveness” value (ROS cells; Example 3, peptide alone) was “inhibiting the basal”, the “effect … (agonist/antagonist behaviour)” value (ROS cells; Example 3) was “antagonists” and the IC50 (ROS cells; Example 3) was 5 µM. The “overall judgement of activity (lead peptides)” value (ROS cells; Example 3 summary, antagonistic (H-C2) and modulating (F2-3) activity) was “highly active” and the “peptide concentration at which the activity of soluble OP-1 is antagonized” value (ROS cells; with 40 ng/ml soluble OP-1, FIG. 9D) was “greater than 5 μM”.

In the case of “H-N2: SEQ ID No. 12; 11 residues (plus Cys) in the loop on the N-terminal end of the Heel helix (CLNSYMNATNHAC; listed as Homo sapiens)”, the “ability” value [1] is reported as “little or no ability to displace”, the “effect on binding” value [1] is reported as “failed to inhibit” and the “effect on basal cell responsiveness” value (ROS cells; Example 3, peptide alone) is reported as “not effective”. The “effect … (agonist/antagonist behaviour)” value (ROS cells; Example 3) was “not effective” and the “effect on alkaline phosphatase activity” value (ROS cells; either alone or in combination with soluble OP-1, FIG. 9C) was “little or no effect”.
